From ChEMBL document CHEMBL1147443, “Regioselective oxidation of 2-amino-3-aroyl-4,5-dialkylthiophenes by DMSO” (Bioorg Med Chem Lett, 2004)

Test: Half life by its biological oxidation in presence of human liver microsomes
Type: ADME, Microsome
Details: not given
In the case of Nc1sc2c(c1C(=O)c1ccc(-c3ccccc3)cc1)CCCC2, the half-life is reported as less than 1 min. With Nc1sc2c(c1C(=O)c1ccc3ccccc3c1)CCCC2 the half-life was less than 1 min. Cc1sc(N)c(C(=O)c2cccc(C(F)(F)F)c2)c1C showed a half-life of less than 1 min.

Test: Half life by its biological oxidation in presence of horse radish […]
Type: ADME
Details: horseradish, horseradish peroxidase
For Nc1sc2c(c1C(=O)c1ccc(-c3ccccc3)cc1)CCCC2, the half-life was less than 1 min. Nc1sc2c(c1C(=O)c1ccc3ccccc3c1)CCCC2 showed a half-life of 1.33 min. With Cc1sc(N)c(C(=O)c2cccc(C(F)(F)F)c2)c1C the half-life was less than 1 min.
